The subject of series [1] is canine cardiac Purkinje fibers. The experiment in a line: action potential duration and upstroke by standard electrophysiological techniques in normal canine Purkinje fibres. In kind it is cell-based. The source says:
The action of the compounds of this invention is attributed to their ability to prolong the action potential of the cardiac tissue. Therefore, they are Class III antiarrhythmic agents within the Vaughan-Williams classification of antiarrhythmic agents. Such activity has been analyzed in several procedures, for instance, utilizing standard electrophysiological techniques to measure resting potential, action potential amplitude, duration, rate of rise and refractory periods of normal canine Purkinje fibres; and also utilizing re-entrant arrhythmias induced by programmed electrical stimulation in the conscious dog.

In series [2] the test system is ganglionic and vagal transmission. The series is described as follows: effects on ganglionic and vagal transmission. In kind it is in vivo. To be noted: doses up to 10 mg/kg (i.e., 3-10 times the effective dose).
Series [3] deals with cardiac tissue. The series is described as follows: conduction and refractoriness in the cardiac tissue.
Series [4] is described as follows: local anesthetic action. Conditions: doses up to 50-100 times the concentration which prolongs action potential duration by 20%.
The test system of series [5] is re-entrant ventricular tachycardia. The series is described as follows: model of re-entrant ventricular tachycardia in dogs. Conditions: anesthetized dogs; times more potent than acecainide. Format: in vivo, dog.
The subject of series [6] is arrhythmia. The experiment in a line: therapeutic dose. Conditions: in vivo.
The subject of series [7] is cardiovascular function. The series is described as follows: cardiovascular / hemodynamic depression in vivo. To be noted: doses 10 to 30 times the therapeutic dose (1-3 mg/kg).
In series [8] the test system is arrhythmia. To be noted: cited from earlier work.
In series [9] the test system is man. Conditions: cited from earlier work; for drug induced lupus erythematosis: in man.
Series [10] has as its system bacteria (Ames Test).
For series [11], the system named is ganglionic and vagal transmission. Conditions: in vivo; literature; cited from earlier work.
Series [12] has as its system cardiac tissue. Conditions: cited from earlier work; for effect on conduction: known drugs.
For series [13], the system named is cardiovascular function. Conditions: cited from earlier work; for depression of cardiac function: Class I drugs; for cardiovascular / hemodynamic depression in vivo: doses approximating the therapeutic dose.
Series [14] deals with cardiac action potential. Conditions: in vitro; Goodman & Gilman, 6th Ed., 1980, pg. 768; cited from earlier work.
The conditions of series [15]: cited from earlier work.

“Also recorded” adds a separate entry of the source. Where two headings read alike, the source gives them in different places.

As for `CCCCCCCNCCNC(=O)c1ccc(NS(C)(=O)=O)cc1.Cl` [N-[2-(Heptylamino)ethyl]-4-[(methylsulfonyl)amino]benzamide hydrochloride], in [1], the “effect on action potential duration” value is given as “prolong action potential duration” and the “effect on action potential upstroke” value is “without slowing the action potential upstroke (it may be increased)”. Besides, the “effects on ganglionic or vagal transmission” value in [2] is given as “nor is there any evidence for effects on ganglionic or vagal transmission”. The “conduction disturbances in the heart / effect on conduction” value in series [3] is reported as “no conduction disturbances in the heart”. The local anesthetic action result in series [4] is reported as “No local anesthetic action”. Besides, the “potency relative to acecainide in a model of re-entrant ventricular tachycardia” value in series [5] is listed as 10 times. For the same molecule, the therapeutic dose in series [6] fell in the range of 1 to 3 mg/kg. Besides, in series [7], the “cardiovascular depression in vivo” value is on record as “no evidence for cardiovascular depression”.

Consider `CCN(CC)CCNC(=O)c1ccc(N)cc1` [procainamide], for which the therapeutic dose in series [8] (in vivo, literature) was 20 to 40 mg/kg. The “drug induced lupus erythematosis” value in [9] is “drug induced lupus erythematosis”. In series [10], the “level showing significant mutagenic potential (Ames Test)” value is recorded as at most 0.2 mg/plate. For the same molecule, the “ganglionic and vagal transmission” value in series [11] is “blocks ganglionic and vagal transmission”. For the same molecule, in series [12], the effect on conduction result is given as “slowing conduction”. Besides, in [13], the “depression of cardiac function” value is on record as “depress cardiac function” and the “cardiovascular / hemodynamic depression in vivo” value is “causes cardiovascular depression; also recorded: causes such depression at doses approximating the therapeutic dose”. Moreover, in [14], the “effect on action potential duration” value is listed as “prolongs action potential duration” and the “effect on action potential upstroke” value was “slows action potential upstroke”.

With `CC(C)N(CCC(C(N)=O)(c1ccccc1)c1ccccn1)C(C)C` (stereo not shown) [disopyramide], in series [12], the effect on conduction result was “slowing conduction”. Moreover, the “depression of cardiac function” value in series [13] was “depress cardiac function”.

For the molecule `CCN(CC)CCNC(=O)c1ccc(NC(C)=O)cc1` [acecainide], in series [8] (reported), the antiarrhythmic activity result is on record as “antiarrhythmic activity”. The “drug induced lupus erythematosis” value in series [9] is recorded as “shown to cause lupus”. In addition, the “incidence of lupus relative to procainamide” value in series [9] (versus procainamide) is recorded as “significantly lower than for procainamide”. For the same molecule, the “mutagenic activity relative to procainamide (Ames Test)” value in series [10] is on record as “one-half as active”. Also, in series [12] (known drug), the prolongation of refractoriness result is on record as “does prolong refractoriness”. For the same molecule, in series [12], the effect on conduction result is on record as “little effect on conduction of the cardiac action potential”. The “cardiovascular / hemodynamic depression in vivo” value in series [13] is listed as “causes such depression at doses approximating the therapeutic dose”. Besides, in series [15], the deacetylation in man result is “deacetylated in man”.

In the case of `C=C[C@H]1C[N@@]2CC[C@H]1C[C@@H]2[C@@H](O)c1ccnc2ccc(OC)cc12` [quinidine], the effect on conduction entry in [12] is on record as “slowing conduction”. Further, the “depression of cardiac function” value in series [13] is given as “depress cardiac function”.

On to `CS(=O)(=O)Nc1ccc(C(=O)NCCNCc2ccccc2)cc1.Cl` [4-[(Methylsulfonyl)amino]-N-[2-((phenylmethyl)amino)ethyl]benzamide hydrochloride], for which, in [1], the “effect on action potential duration” value was “prolong action potential duration” and the “effect on action potential upstroke” value was “without slowing the action potential upstroke (it may be increased)”. Further, the “effects on ganglionic or vagal transmission” value in series [2] was “nor is there any evidence for effects on ganglionic or vagal transmission”. In addition, the “conduction disturbances in the heart / effect on conduction” value in [3] is reported as “no conduction disturbances in the heart”. In [4], the local anesthetic action result is “No local anesthetic action”. For the same molecule, the “potency relative to acecainide in a model of re-entrant ventricular tachycardia” value in [5] is on record as 10 times. The molecule also yielded a therapeutic dose in series [6] of 1 to 3 mg/kg. Moreover, the “cardiovascular depression in vivo” value in series [7] is recorded as “no evidence for cardiovascular depression”.

The record behind these values is US4629739A, “Substituted sulfonamidobenzamides and method of treating arrhythmias” (priority 1985, dated 1986).
